Measured values as given in publication PMC12430544 (Molecules, 2025).

Assays:
[1] = Metal chelation by UV–vis spectrometry, Job's method and affinity estimate (Cu); assay type: physicochemical; conditions: CH3OH/H2O (v/v = 9/1), UV–vis, 2L+M⇔ML2
Text: (§1) Given the 8-hydroxy(amino)quinoline moiety with the properties to bind metal ions, the abilities of all the compounds in binding metal ions (Cu^II, Fe^III, Zn^II) were studied by UV–vis spectrometry. At first three compounds were chose to test the binding abilities. Upon the addition of CuCl2 or ZnSO4 the maximum absorption suffered a bathochromic shift, pointing out the formation of complex compound–Cu^II. […] […].
(§2) To determine the stoichiometry of the complex compound–Cu^II, the technique of continuous variations (also called Job’s method) was used by preparing solutions of compounds 15a, 17b and CuSO4 so that the sum of concentrations of both species was constant at […] in all samples, but the proportions of both components varied between 0 and 100%. The UV spectra were recorded and the absorbance change at the maximum absorption wavelength of the compound-Cu^II complex, meaning the 15a-Cu^II complex at 264 nm and the 17b-Cu^II at 265 nm, respectively. The absorbance change was plotted versus the mole fraction of the compound, giving two straight lines whose equations were calculated. […] […].
(§3) Since all the ligands studied L from ML2 species and in accordance with the Beer–Lambert law, complexation reactions can be summarized as 2L+M⇔ML2 with K = 1−α/4C^2α^3 , and α can be calculated from the data of the absorption.
(§4) Metal-chelating properties were evaluated by UV–vis spectrometry. To screen the ability of chelating metal ions, the same concentrations of compound and metal ion were mixed in CH3OH/H2O (v/v = 9/1), and the UV–vis spectrum was tested; compared to the compound, the maximum absorption that suffered a bathochromic shift would point out the formation of a complex compound–metal ion. The stoichiometry of the complex compound–metal ion was determined by Job’s method. The affinity of compounds 15–17 as ligands (excepted 15f, 16d, 16g, 16k) for Cu^II or Zn^II were estimated in the CH3OH/H2O solution (v/v = 9/1). Since all the ligands studied L from ML2 species and in accordance with the Beer–Lambert law, complexation reactions can be summarized as 2L+M⇔ML2 with K = 1−α/4C^2α^3 , and α = A/Amax; A was the data of absorption tested when the compound–metal ion = 2/1 under the maximum absorption wavelength of the complex, Amax was the absorption when the compound completely formed a complex with the metal ion; the data can be obtained as an approximation when the metal ion is in excess, and the absorption changes little as the concentration of metal ion still increases.

Aβ1–42 = molecular target: T1, Aβ1–42 (Homo sapiens, UniProt P05067); experiment: Inhibition of self-induced Aβ1–42 aggregation (ThT fluorescence); assay type: biochemical; conditions: 20 μM compound, thioflavin-T fluorescence, mean ± SD of at least three independent experiments; read-out: Aβ Aggregation Inhibition (%), self-induced Aβ1–42
T1 construct: aggregation of Aβ1–42 synthetic peptide into fibrils
T1 sequence (P05067 672-713): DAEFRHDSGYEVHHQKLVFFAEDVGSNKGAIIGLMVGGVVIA
Experimental: Self-induced Aβ1–42 aggregation of all the compounds we obtained was also evaluated. […] ThT is a histochemical dye that is known to bind to the peptide β-sheet conformation, which is the predominant secondary structure of amyloid-beta fibrils. […] The inhibition studies were carried out upon incubating Aβ1–42 with and without the compounds.
Aβ1–42 was dissolved in 100% 1,1,1,3,3,3-[…] (HFIP) to a concentration of 1 mg/mL, sonicated in a water bath overnight, aliquoted into microcentrifuge tubes, dried under vacuum, and stored at −20 °C. Immediately prior to use, the HFIP-treated Aβ1–42 was dissolved in dimethylsulfoxide (DMSO) as the stored solution. […] Amounts of 5 μL of compound (200 μM) and 5 μL of 200 μM Aβ1–42 were added into 40 μL of phosphate-buffered saline (PBS at pH 7.4). After incubation at room temperature on a thermostatic shaker for 72 h, 100 μL of 5 μM ThT solution (in PBS at pH 7.4) was added to the reaction solution. […] The Aβ1–42 aggregation inhibition percentage was calculated using the following formula: inhibition percentage = (F1 − F2)/(F1 − F0) × 100%.

[2] = Metal chelation by UV–vis spectrometry, stoichiometry and affinity estimate (Zn); assay type: physicochemical; conditions: CH3OH/H2O (v/v = 9/1), 2L+M⇔ML2
Text: as §1, §2, §3, §4

[3] = molecular target: T2, acetylcholinesterase (AChE, from an electric eel) (Electrophorus electricus, UniProt O42275); experiment: biochemical; conditions: for IC50: electric eel AChE, Ellman's method, pH 7.4, means ± SEM of at least three experiments, read-out: IC50 AChE Inhibition; for Selectivity Index = IC50 (AChE)/IC50 (BuChE): ratio of eeAChE and equine BuChE IC50
T2 construct: purchased Sigma-Aldrich
T2 sequence (O42275 24-633): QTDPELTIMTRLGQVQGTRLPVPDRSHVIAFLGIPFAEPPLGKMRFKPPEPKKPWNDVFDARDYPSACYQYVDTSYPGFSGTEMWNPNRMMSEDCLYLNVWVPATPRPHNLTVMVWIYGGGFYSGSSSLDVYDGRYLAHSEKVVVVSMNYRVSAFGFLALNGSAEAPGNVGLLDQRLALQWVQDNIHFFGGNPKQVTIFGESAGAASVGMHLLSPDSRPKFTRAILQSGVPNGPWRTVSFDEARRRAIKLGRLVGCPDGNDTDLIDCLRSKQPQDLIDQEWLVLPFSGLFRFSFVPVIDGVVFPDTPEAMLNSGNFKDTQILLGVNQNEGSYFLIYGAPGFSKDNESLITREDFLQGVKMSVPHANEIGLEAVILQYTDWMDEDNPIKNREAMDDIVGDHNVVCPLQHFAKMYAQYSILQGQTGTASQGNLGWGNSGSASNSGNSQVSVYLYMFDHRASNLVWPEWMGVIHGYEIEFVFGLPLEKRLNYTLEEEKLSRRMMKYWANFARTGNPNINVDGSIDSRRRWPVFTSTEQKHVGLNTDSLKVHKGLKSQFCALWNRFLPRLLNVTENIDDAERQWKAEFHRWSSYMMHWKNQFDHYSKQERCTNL
Experimental: (§5) Cholinesterase (ChE) inhibitory activity was evaluated using a modified Ellman’s spectrophotometric method. Acetylcholinesterase (AChE, from electric eel), butyrylcholinesterase (BuChE, from equine serum), 5,5′-dithiobis-(2-nitrobenzoic acid) (Ellman’s reagent, DTNB), S-butyrylthiocholine iodide (BTCI), acetylthiocholine iodide (ATCI), and tarcine hydrochloride were purchased from Sigma-Aldrich. Tarcine hydrochloride was used as a reference standard. All the assays were carried out in 0.1 M KH2PO4/K2HPO4 buffer (pH = 7.4). Stock solutions of tested compounds (10 mM) were prepared in DMSO (below 0.5%, v/v) and diluted in phosphate buffer. The assay was performed in 96-well plate by adding 25 μL of 1 mM acetylthiocholine iodide or butyrylthiocholine iodide used as substrate in the assay, 125 μL of 1 mM 5,5′-dithiobis-(2-nitrobenzoic acid) (DTNB), 25 μL of 0.1 M phosphate buffer (pH = 7.4), 25 μL of testing substance in various concentrations, and 50 μL of 0.2 Units/mL AChE from an electric eel or BuChE from equine serum, respectively. At least five concentrations of the test compounds were assayed. […] The enzyme activity and the percentage inhibition were determined.

[4] = molecular target: T3, butyrylcholinesterase (BuChE, from horse serum) (Equus caballus, UniProt P81908); experiment: biochemical; conditions: equine serum BuChE, Ellman's method, pH 7.4; means ± SEM of at least three experiments; read-out: IC50 BuChE Inhibition
T3 construct: purchased Sigma-Aldrich
T3 sequence (P81908 whole entry): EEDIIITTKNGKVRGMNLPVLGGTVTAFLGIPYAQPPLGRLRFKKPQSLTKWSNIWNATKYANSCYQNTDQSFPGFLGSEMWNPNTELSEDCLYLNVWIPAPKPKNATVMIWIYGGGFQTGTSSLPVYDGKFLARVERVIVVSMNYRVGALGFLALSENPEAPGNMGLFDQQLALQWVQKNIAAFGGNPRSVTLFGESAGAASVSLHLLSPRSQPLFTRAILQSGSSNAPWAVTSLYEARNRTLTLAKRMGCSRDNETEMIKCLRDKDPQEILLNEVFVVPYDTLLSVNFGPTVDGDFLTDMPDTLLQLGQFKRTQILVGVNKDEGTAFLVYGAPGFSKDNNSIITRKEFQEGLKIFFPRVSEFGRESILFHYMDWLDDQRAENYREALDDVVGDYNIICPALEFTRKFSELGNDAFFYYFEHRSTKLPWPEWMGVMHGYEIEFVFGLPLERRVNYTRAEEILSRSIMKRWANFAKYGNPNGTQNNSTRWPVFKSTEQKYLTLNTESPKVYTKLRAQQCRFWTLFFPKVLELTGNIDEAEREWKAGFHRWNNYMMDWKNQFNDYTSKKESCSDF
Experimental: as §5

| SMILES | LogK Cu (affinity of ligand for Cu^II, ML2) [1] | inhibition at 20 µM (Aβ1–42) | LogK Zn (affinity of ligand for Zn^II, ML2) [2] | IC50 [3] | Selectivity Index = IC50 (AChE)/IC50 (BuChE) [3] | IC50 [4] |
| --- | --- | --- | --- | --- | --- | --- |
| Oc1ccc(F)c2ccc(CN3CCN(CCCCCNc4c5c(nc6ccccc46)CCCC5)CC3)nc12 [Compound 16i, 5-Fluoro-2-((4-(5-((1,2,3,4-tetrahydroacridin-9-yl)amino)pentyl)piperazin-1-yl)methyl)quinolin-8-ol] | 9.49 | 55.6 ± 5.3% | 9.49 | 400 ± 6 nM | 3.33 | 120 ± 20 nM |
| Oc1ccc(Cl)c2ccc(CN3CCN(CCCCCNc4c5c(nc6ccccc46)CCCC5)CC3)nc12 [Compound 16j, 5-Chloro-2-((4-(5-((1,2,3,4-tetrahydroacridin-9-yl)amino)pentyl)piperazin-1-yl)methyl)quinolin-8-ol] | 9.96 | 74.8 ± 4.7% | 9.65 | 130 ± 20 nM | 2.89 | 45 ± 11 nM |
| Oc1ccc(F)c2ccc(CN3CCN(CCNc4c5c(nc6ccccc46)CCCC5)CC3)nc12 [Compound 16b, 5-Fluoro-2-((4-(2-((1,2,3,4-tetrahydroacridin-9-yl)amino)ethyl)piperazin-1-yl)methyl)quinolin-8-ol] | 9.99 | 22.9 ± 2.4% | 9.63 | 190 ± 5 nM | 0.95 | 200 ± 3 nM |
| O=C(CN1CCN(Cc2ccc3c(Cl)ccc(O)c3n2)CC1)Nc1c2c(nc3ccccc13)CCCC2 [Compound 15b, 2-(4-((5-Chloro-8-hydroxyquinolin-2-yl)methyl)piperazin-1-yl)-N-(1,2,3,4-tetrahydroacridin-9-yl)acetamide] | 10.09 | – | 11.34 | 2180 ± 170 nM | 0.19 | 11500 ± 1560 nM |
| COc1cc(/C=C/C(=O)CC(=O)/C=C/c2ccc(O)c(OC)c2)ccc1O [curcumin, reference compound] | – | 58.3 ± 2.5% | – | – | – | – |
| Nc1cccc2ccc(CN3CCN(CC(=O)Nc4c5c(nc6ccccc46)CCCC5)CC3)nc12 [Compound 15f, 2-(4-((8-Aminoquinolin-2-yl)methyl)piperazin-1-yl)-N-(1,2,3,4-tetrahydroacridin-9-yl)acetamide] | – | 22 ± 1.8% | – | 1240 ± 210 nM | 0.16 | 7850 ± 710 nM |
| O=C(CN1CCN(Cc2ccc3c(Cl)cc(Cl)c(O)c3n2)CC1)Nc1c2c(nc3ccccc13)CCCC2 [Compound 15e, 2-(4-((5,7-Dichloro-8-hydroxyquinolin-2-yl)methyl)piperazin-1-yl)-N-(1,2,3,4-tetrahydroacridin-9-yl)acetamide] | 9.59 | 55.9 ± 2.5% | 9.65 | 5730 ± 170 nM | 1.04 | 5530 ± 270 nM |
| Nc1cccc2ccc(CN3CCN(CCCCCNc4c5c(nc6ccccc46)CCCC5)CC3)nc12 [Compound 16k, N-(5-(4-((8-aminoquinolin-2-yl)methyl)piperazin-1-yl)pentyl)-1,2,3,4-tetrahydroacridin-9-amine] | – | 86.7 ± 3.8% | – | 210 ± 3 nM | 3.89 | 54 ± 4 nM |
| Oc1c(Cl)cc(Cl)c2ccc(CN3CCN(CCNc4c5c(nc6ccccc46)CCCC5)CC3)nc12 [Compound 16c, 5,7-Dichloro-2-((4-(2-((1,2,3,4-tetrahydroacridin-9-yl)amino)ethyl)piperazin-1-yl)methyl)quinolin-8-ol] | 9.75 | 92.5 ± 3.3% | 9.28 | 2680 ± 300 nM | 0.79 | 3410 ± 6 nM |
| Oc1cccc2ccc(CN3CCN(CCNc4c5c(nc6ccccc46)CCCC5)CC3)nc12 [Compound 16a, 2-((4-(2-((1,2,3,4-Tetrahydroacridin-9-yl)amino)ethyl)piperazin-1-yl)methyl)quinolin-8-ol] | 9.63 | 77 ± 4.3% | 9.48 | 440 ± 6 nM | 1.63 | 270 ± 4 nM |
| O=C(CN1CCN(Cc2ccc(O)c3ncccc23)CC1)Nc1c2c(nc3ccccc13)CCCC2 [Compound 17a, 2-(4-((8-Hydroxyquinolin-5-yl)methyl)piperazin-1-yl)-N-(1,2,3,4-tetrahydroacridin-9-yl)acetamide] | 9.50 | 24.6 ± 3.7% | 9.67 | 4460 ± 330 nM | 1.08 | 4130 ± 100 nM |
| Oc1ccc(F)c2ccc(CN3CCN(CCCNc4c5c(nc6ccccc46)CCCC5)CC3)nc12 [Compound 16f, 5-Fluoro-2-((4-(3-((1,2,3,4-tetrahydroacridin-9-yl)amino)propyl)piperazin-1-yl)methyl)quinolin-8-ol] | 9.62 | 54.4 ± 2.9% | 9.45 | 87 ± 2 nM | 3.11 | 28 ± 2 nM |
| Oc1cccc2ccc(CN3CCN(CCCCCNc4c5c(nc6ccccc46)CCCC5)CC3)nc12 [Compound 16h, 2-((4-(5-((1,2,3,4-Tetrahydroacridin-9-yl)amino)pentyl)piperazin-1-yl)methyl)quinolin-8-ol] | 9.87 | 93.2 ± 3.9% | 9.63 | 210 ± 3 nM | 2.10 | 100 ± 10 nM |
| Nc1cccc2ccc(CN3CCN(CCNc4c5c(nc6ccccc46)CCCC5)CC3)nc12 [Compound 16d, N-(2-(4-((8-aminoquinolin-2-yl)methyl)piperazin-1-yl)ethyl)-1,2,3,4-tetrahydroacridin-9-amine] | – | 84.7 ± 3.6% | – | 180 ± 4 nM | 0.86 | 210 ± 3 nM |
